Test results from patent US8258098B2, “Antitumoral treatments” (Pharma Mar, S.A., priority 2006, dated 2012).

Tests used:
MX1 cells = experiment: MTS cytotoxicity assay, 72 hours, single agents and combinations with Aplidine; type: cell-based; conditions: Homo sapiens, MX1, 72 hours drug exposure, read-out: IC50 (Molar)
Experimental: (§1) Day before plating cells all cultures were fed with fresh, complete growth media. On the harvest (plating) day cells were counted by Trypan Blue exclusion staining method (basic cell culture). Cells were harvested and seeded in 96 well microtiter plates at 10,000 cells per well in 190 μL of media and incubated for 24 hours to allow the cells to attach before drug addition. Cells were treated with the drugs and the cytotoxic effect was measured by the MTS Assay (Tetrazolium), which is a colorimetric method for determining the number of viable cells. After the 72 hours of incubation with drug, 25 μL of MTS+PMS solution was added to each microtiter well and incubated for 4 hours at 37° C. Plates were then removed from incubator and placed on plate shaker for 5 minutes (covered with aluminium foil for protection from light). Optical densities were read at 490 nm on spectrophotometer plate reader.
(§2) The microtiter plates were incubated for 72 hrs, at 5% CO2 and 37° C. The cytotoxic effect was measured by MTS Assay. Optical densities read at 490 nm. Normalized data was plotted and interpreted as described. Data was analysed as: • 1. Prism (Graphpad) software program was used to normalized the data to control values (100%=cell growth in the absence of agent (drug); 0%=blank control). • 2. Data normalized were plotted as scatter plots.
(§3) Conversely, antagonism was concluded when inhibition was lower than both maxima. […] Statistical significance was assessed by performing a student's t-test on the inhibition at each dose ratio versus the inhibition at the maximum for each drug.
(§4) As a visual aid, response values were plotted on a scatter plot with dose ratios given on the x-axis and % response values on the y-axis. […] In cases where response values at the two endpoints were approximately equivalent, points lying above or below this predicted line of additivity could be interpreted as representing antagonistic or synergistic drug interaction, respectively.

MOLT3 cells = experiment: as above; type: cell-based; conditions: Homo sapiens, MOLT-3, MOLT3, 72 hours drug exposure, read-out: IC50 (Molar)
Experimental: as §1, §2, §3, §4

PC3 cells = experiment: as above; type: cell-based; conditions: Homo sapiens, PC-3, PC3, 72 hours drug exposure, read-out: IC50 (Molar)
Experimental: as §1, §2, §3, §4

HL60 cells = experiment: as above; type: cell-based; conditions: Homo sapiens, HL-60, HL60, 72 hours drug exposure, read-out: IC50 (Molar)
Experimental: as §1, §2, §3, §4

A549 cells = experiment: as above; type: cell-based; conditions: Homo sapiens, A549, 72 hours drug exposure, read-out: IC50 (Molar)
Experimental: as §1, §2, §3, §4

HT29 cells = experiment: as above; type: cell-based; conditions: Homo sapiens, HT-29, HT29, 72 hours drug exposure, read-out: IC50 (Molar)
Experimental: as §1, §2, §3, §4

[1] = tested on: LOX-IMVI melanoma tumor xenografts; experiment: Net tumor volume in tumor xenografts; type: in vivo, female athymic mice; conditions: DTIC 30 mg/kg, Carboplatin 25 mg/kg, i.p.
Text: (§5) Athymic nude female mice were received from Harlan Sprague Dawley, Madison, Wis. at 4-5 weeks of age. Mice were acclimated to the laboratory for at least one week prior to implantation of tumor. Animals were housed in static cages with food and water allowed ad libitum. Experimental animals were implanted with either tumor fragments derived from transplantation established human tumors or with cells obtain directly from in vitro culture. Tumors were implanted subcutaneously on the right flank on Day 0.
(§6) Tumor size measurements were recorded twice weekly beginning on day 4 or 5 using vernier calipers. The formula to calculate volume for a prolate ellipsoid was used to estimate tumor volume from 2-dimensional tumor measurements: tumor volume (mm^3)=(length×width^2)÷2. Assuming unit density, volume was converted to weight (i.e., 1 mm^3=1 mg). […] Treatments were initiated and administered on an individual body weight basis. A dose range finding study was performed on each tumor model to determine the appropriate dose level of each compound used in the combination studies.

[2] = tested on: MRI-H187 melanoma tumor xenografts; experiment: Net tumor volume in tumor xenografts; type: in vivo, female athymic mice; conditions: Aplidine 50 μg/kg, DTIC 40 mg/kg, Carboplatin 25 mg/kg, i.p.
Text: as §5, §6

[3] = tested on: MRI-H121 renal tumor xenografts; experiment: Net tumor volume in tumor xenografts; type: in vivo, female athymic mice; conditions: Aplidine 25 μg/kg i.p., Avastin […] i.p., IL-2 1 μg/mouse i.p., INF-α 200,000 U/mouse s.c.
Text: as §5, §6

[4] = tested on: CaKi-1 renal tumor xenografts; experiment: Net tumor volume in tumor xenografts; type: in vivo, female athymic mice; conditions: Aplidine 50 μg/kg i.p., Avastin 5.0 mg/kg i.p., IL-2 2 μg/mouse i.p., INF-α 200,000 U/mouse s.c.
Text: as §5, §6

Compound: O=c1[nH]cc(F)c(=O)[nH]1 [5-FU, 5-fluorouracil]
- IC50 (MX1 cells): > 100 µM
- IC50 (MOLT3 cells): 11 µM
- IC50 (PC3 cells): 220 µM
- IC50 (HL60 cells): 1200 µM
- IC50 (A549 cells): 1400 µM
- IC50 (HT29 cells): 880 µM

Compound: CN(C)/N=N/c1[nH]cnc1C(N)=O [DTIC, dacarbazine]
- Net Tumor Volume ± S.E.M. ([1]; DAY 8, Aplidine 50 μg/kg): 208 ± 25 mg
- Net Tumor Volume ± S.E.M. ([1]; DAY 12, Aplidine 50 μg/kg): 699 ± 57 mg
- Net Tumor Volume ± S.E.M. ([1]; DAY 14, Aplidine 50 μg/kg): 950 ± 57 mg
- Net Tumor Volume ± S.E.M. ([1]; DAY 19, Aplidine 50 μg/kg): 2695 ± 560 mg
- Net Tumor Volume ± S.E.M. ([2]; MRI-H187, DAY 20): 148 ± 14 mg
- Net Tumor Volume ± S.E.M. ([2]; MRI-H187, DAY 24): 264 ± 60 mg
- Net Tumor Volume ± S.E.M. ([2]; MRI-H187, DAY 27): 377 ± 98 mg
- Net Tumor Volume ± S.E.M. ([2]; MRI-H187, DAY 31): 558 ± 152 mg
- Net Tumor Volume ± S.E.M. ([2]; MRI-H187, DAY 34): 681 ± 187 mg
- Net Tumor Volume ± S.E.M. ([2]; MRI-H187, DAY 38): 927 ± 274 mg
- Net Tumor Volume ± S.E.M. ([2]; MRI-H187, DAY 46): 1508 ± 427 mg
- Net Tumor Volume ± S.E.M. ([2]; MRI-H187, DAY 49): 1804 ± 507 mg
- Net Tumor Volume ± S.E.M. ([2]; MRI-H187, DAY 52): 2036 ± 525 mg
- Net Tumor Volume ± S.E.M. ([2]; MRI-H187, DAY 55): 2123 ± 558 mg
- Net Tumor Volume ± S.E.M. ([2]; MRI-H187, DAY 59): 2166 ± 563 mg
- Net Tumor Volume ± S.E.M. ([2]; MRI-H187, DAY 62): 2333 ± 433 mg
- Net Tumor Volume ± S.E.M. ([2]; MRI-H187, DAY 66): 2508 ± 536 mg

Compound: Avastin ®: Bevacizumab (Avastin®), standard of care agent
- Net Tumor Volume ± S.E.M. ([3]; MRI-H121, DAY 11): 106 ± 7 mg
- Net Tumor Volume ± S.E.M. ([3]; MRI-H121, DAY 14): 171 ± 16 mg
- Net Tumor Volume ± S.E.M. ([3]; MRI-H121, DAY 18): 306 ± 27 mg
- Net Tumor Volume ± S.E.M. ([3]; MRI-H121, DAY 19): 299 ± 39 mg
- Net Tumor Volume ± S.E.M. ([3]; MRI-H121, DAY 21): 365 ± 39 mg
- Net Tumor Volume ± S.E.M. ([3]; MRI-H121, DAY 26): 503 ± 57 mg
- Net Tumor Volume ± S.E.M. ([3]; MRI-H121, DAY 29): 678 ± 77 mg
- Net Tumor Volume ± S.E.M. ([3]; MRI-H121, DAY 32): 899 ± 93 mg
- Net Tumor Volume ± S.E.M. ([3]; MRI-H121, DAY 35): 898 ± 69 mg
- Net Tumor Volume ± S.E.M. ([3]; MRI-H121, DAY 39): 1240 ± 124 mg
- Net Tumor Volume ± S.E.M. ([3]; MRI-H121, DAY 42): 1383 ± 148 mg
- Net Tumor Volume ± S.E.M. ([4]; CaKi-1, DAY 13): 105 ± 3 mg
- Net Tumor Volume ± S.E.M. ([4]; CaKi-1, DAY 15): 162 ± 14 mg
- Net Tumor Volume ± S.E.M. ([4]; CaKi-1, DAY 19): 286 ± 49 mg
- Net Tumor Volume ± S.E.M. ([4]; CaKi-1, DAY 22): 398 ± 53 mg
- Net Tumor Volume ± S.E.M. ([4]; CaKi-1, DAY 26): 632 ± 79 mg
- Net Tumor Volume ± S.E.M. ([4]; CaKi-1, DAY 29): 811 ± 90 mg
- Net Tumor Volume ± S.E.M. ([4]; CaKi-1, DAY 33): 985 ± 111 mg
- Net Tumor Volume ± S.E.M. ([4]; CaKi-1, DAY 36): 1251 ± 109 mg
- Net Tumor Volume ± S.E.M. ([4]; CaKi-1, DAY 41): 1654 ± 189 mg
- Net Tumor Volume ± S.E.M. ([4]; CaKi-1, DAY 47): 2170 ± 253 mg
- Net Tumor Volume ± S.E.M. ([4]; CaKi-1, DAY 50): 2842 ± 379 mg
